From PubChem BioAssay AID179 (DTP/NCI, 2004)
Active and inactive are the calls of the source.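 Rule for the calls: active = compounds giving half or more protection of infected cells from virus-caused growth loss, again on retest; inactive = the rest.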 Where a SMILES comes first, the peptide text is derived from it. The star is where a group is joined. Fmoc = O=C(OCC1c2ccccc2-c2ccccc21)*; Boc = CC(C)(C)OC(=O)*

Test system: CEM cells HIV-1 protection, formazan growth assay
Experiment: NCI AIDS Antiviral Assay
Details: for IC50: measured here: growth of uninfected CEM cells
Summary of the method: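 Soluble formazan readout of cell growth; CEM cells ± HIV-1; 5 drug concs. ≥50% protection → retest; ≥50% again = moderately active; reproducible 100% = confirmed active.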

| SMILES | EC50 [µM] | IC50 [µM] | outcome |
| --- | --- | --- | --- |
| CCCCN1C(=O)[C@](O)(NC(C)=O)[C@H]1COC(C)(C)C | > 43.7 | > 43.7 | – |
| C[C@@H](NC(=O)c1ccccc1SC(=O)CCCC[n+]1ccccc1)C(N)=O | 0.741 | 105 | – |
| COc1cc(C(=O)O)c2c(c1C)OC(=O)c1c(C)cc(O)c(C=O)c1O2 | > 83.2 | 36.3 | – |
| CC(C)c1cccc(C(C)C)c1NC(=O)/C(Cc1nc2ccc(Cl)cc2[nH]c1=O)=N\NC(=O)C[N+](C)(C)C | > 162 | > 162 | – |
| CCC1CN2CCc3cc(OC)c(OC)cc3C2CC1CC1c2cc(OC)c(OC)cc2CCN1C(=O)C(N)Cc1ccccc1 (stereo not given) | – | – | inactive |
| NC(N)=NCCC(O)(P(=O)(O)O)P(=O)(O)O | > 200 | > 200 | – |
| C[C@@]1(Br)C[C@@](C)(Cl)[C@@H](Br)CC1/C=C/Cl (stereo not given in full) | > 200 | 77.6 | – |
| NCCCCN(CCCN)C(=O)c1ccccc1 | – | – | inactive |
| O=C1C=Cc2ccccc2/C1=C/c1nc(-c2ccccc2)oc1O | > 100 | 58.9 | – |
| CC(C)OP(=O)(CP(=O)(OC(C)C)OC(C)C)OC(C)C.[CH3][Sn]([Br])([Br])[Br] | > 347 | > 347 | – |
| N#CC1(C#N)C2CCCCC23OC(=N)C1(C#N)C(c1ccco1)O3 (stereo not given) | > 200 | 5.75 | – |
| Cc1ccc2[nH]c3c(c2c1)CCC/C3=N/N=C(N)N | > 20 | 3.02 | – |
| COc1ccc(-c2c3c(nc4nc(SC)nc(SC)c24)CCCC3)cc1OC | > 100 | 81.3 | – |
| Clc1ccc(N=c2ccc3ccccc3[oH+]2)cc1.Clc1ccc(N=c2ccc3ccccc3[oH+]2)cc1.[Ni] | – | – | inactive |
| COc1cc(COC(=O)N2CC=CC2C(=O)O)c([N+](=O)[O-])cc1OC (stereo not given) | > 708 | > 708 | – |
| Cc1ccc(S(=O)(=O)N/N=C2\CCC3(O)CC2(C)CCC2C3CC2(C)C)cc1 (stereo not given) | 28.2 | 51.3 | – |
| CCOC(=O)c1ccc(/C=C/c2cccn2C(=O)OC(C)(C)C)[nH]1 | – | – | inactive |
| CC1=C(CO)C(=O)O[C@@H]([C@@H](CO)[C@H]2CCC3C4C[C@@H](O)[C@@]5(O)CC=CC(=O)[C@]5(C)C4CC[C@@]32C)C1 (stereo not given in full) | – | – | inactive |
| COc1ccc(N=C2[Se]C(=NC(=O)c3ccccc3)N(c3ccc(OC)cc3)C2=Nc2ccc(OC)cc2)cc1 | > 200 | 102 | – |
| O=C1C2CC=CCC2C(=O)N1n1c(-c2ccccc2)n[nH]c1=O (stereo not given) | > 200 | > 200 | – |
| CCn1cc(C(=O)O)c(=O)c2ccc(-c3ccncc3)cc21 | – | – | inactive |
| NCP1(=O)CNC(=O)NC1 | > 1510 | > 1510 | – |

| SMILES | EC50 [µM] | IC50 [µM] | outcome |
| --- | --- | --- | --- |
| O=C(O)COCC(=O)N(CCOCCN(Cc1ccccc1)C(=O)COCC(=O)O)Cc1ccccc1 | > 200 | > 200 | – |
| Cc1oc2ccccc2c(=O)c1C | – | – | inactive |
| CNC(=S)N1CCN(C(C)=O)C1=S | > 200 | > 200 | – |
| c1ccc(C2=C(c3ccccc3)C23SCCS3)cc1 | > 200 | 33.9 | – |
| COC1(OC)CCCCCCCCC(OC)(OC)CCCCCCCC1 | > 200 | > 200 | – |
| COCn1c2ccc(OC(C)=O)cc2c2c(=O)oc(N(C)C)nc21 | > 200 | > 200 | – |
| COc1cccc(NC(=O)C(C#N)=C(SC)SC)c1 | > 200 | 7.94 | – |
| CCCCNC(=O)Sc1ccccc1C(=O)NCCC(N)=O | 0.933 | 117 | – |
| Oc1cc(O)c2c(c1)OC(c1ccc(O)c(O)c1)C(O)C2c1c(O)cc(O)c2c1OC(c1ccc(O)c(O)c1)C(O)C2 (stereo not given) | > 200 | 102 | – |
| CCOC(=O)C/C(N)=C(\C#N)C(=O)OCC | – | – | inactive |
| O=C(O)c1cc(N=Nc2ccc(/C=C/c3ccc(N=Nc4cc(C(=O)O)c(O)c5ccccc45)cc3S(=O)(=O)O)c(S(=O)(=O)O)c2)c2ccccc2c1O | 46.8 | 72.4 | – |
| COCn1c(=O)n(C)c(=O)c2c1nc1c(c(=O)n(C)c(=O)n1COC)[n+]2[O-] | > 200 | 5.25 | – |
| O=c1c2ccccc2[nH]c(=S)n1-c1ccc(Cl)cc1 | > 200 | > 200 | – |
| COc1cc(C(=O)C/C(CCCC(=O)Nc2ccccc2[N+](=O)[O-])=N/NC(=O)c2cc3ccccc3cc2O)ccc1O | > 32.4 | 27.5 | – |
| C=CCn1c(-c2ccc([N+](=O)[O-])cc2)cs/c1=N\C(P(=O)(O)O)P(=O)(O)O | > 200 | > 200 | – |
| O=c1c2ccccc2nc(/C=C(\O)c2ccccc2)n1-c1ccccc1Cl | – | – | inactive |
| NCC(SSC(CN)C(=O)O)C(=O)O (stereo not given) | > 200 | > 200 | – |
| O=C(O)CN(c1ccccc1)S(=O)(=O)c1cccc([N+](=O)[O-])c1 | – | – | inactive |
| CCOC(=O)NC(Nc1cccc(F)c1)(C(F)(F)F)C(F)(F)F | > 200 | > 200 | – |
| CCCCCSCCCCCCCC(=O)OCC1OC(n2cc(C)c(=O)[nH]c2=O)CC1N=[N+]=[N-] (stereo not given) | – | 91.2 | active |
| Cc1ccc(SCC(CF)OCn2cc(F)c(=O)[nH]c2=O)cc1 (stereo not given) | > 200 | 123 | – |
| N=c1oc2ccc3ccccc3c2cc1C(N)=S | > 200 | 9.55 | – |

| SMILES | EC50 [µM] | IC50 [µM] | outcome |
| --- | --- | --- | --- |
| C=C(C)C(=O)OC1CC2=CC(CC3(C)OC3C3OC(=O)C(=C)C13)OC2=O (stereo not given) | > 200 | 2.4 | – |
| C(=C/C1CCCOC1)/CCc1ccccc1 (stereo not given) | – | – | inactive |
| COc1ccc(/C(C#N)=C/c2cc(OC)c(OC)c(OC)c2)cc1 | > 200 | 5.75 | – |
| COc1ccc(C2Nc3cc(Cl)ccc3NC3=C2C(=O)CC(C)(C)C3)cc1 (stereo not given) | > 200 | 83.2 | – |
| N/N=C(/Cc1ccccc1)NNO | > 525 | 174 | – |
| Cc1nc2c(O)ccc(O)c2nc1C | > 200 | 17.8 | – |
| O=C(C[n+]1ccncc1)c1ccc2c(c1)CCCC2 | 0.0631 | > 200 | – |
| COCC[N+](CCNC(=O)c1cccc2c(N)c3cccc(C)c3nc12)(CCOC)Cc1ccc([N+](=O)[O-])cc1 | > 200 | 13.2 | – |
| CCCCC=C(c1cc(Cl)c(OC)c(C(=O)OC)c1)c1cc(Cl)c(OC)c(C(=O)OC)c1 | > 5.62 | > 5.62 | – |
| CC(C)(C)OC(=O)NCCCCC(NC(=O)OCC1c2ccccc2-c2ccccc21)C(=O)N1CCCC1C(=O)NCC(N)=O (stereo not drawn) (Fmoc-Lys(Boc)-Pro-Gly-NH2; configuration not given here) | 69.2 | 91.2 | – |
| c1ccc(NNC2=NCCN2)cc1 | > 200 | 55 | – |
| Cc1cc(NS(=O)(=O)c2ccc(N=c3c4ccccc4n(Cc4ccccc4)c4ccccc34)cc2)no1 | – | – | inactive |
| CC(C)(O)c1cc2c(cc1C(C)(C)O)-c1ccccc1-2 | > 200 | > 200 | – |
| COc1c(C=O)c2c(c(OC)c1OC)-c1ccc(OC)c(=O)cc1[C@@H](NC(C)=O)CC2 | > 0.2 | 0.011 | – |
| CCOC(=O)c1nc2cc(C(F)(F)F)ccc2nc1Nc1cc(OC)c(OC)c(OC)c1 | – | – | inactive |
| C/C(=N/NC(=S)Nc1ccccc1Cl)c1cccc(/C(C)=N\NC(=S)Nc2ccccc2Cl)n1 | > 200 | 87.1 | – |
| CC(=O)Nc1ccc(/C=C2\SC(=S)N(/C=C(\C(C)=O)C(N)=O)C2=O)cc1 | > 200 | 72.4 | – |
| CC(=S)NC1C(Oc2ccc3c(C)cc(=O)oc3c2)OC(CO)C(O)C1O (stereo not given) | > 200 | > 200 | – |
| COC(=O)/C=C\C(C#N)(C#N)N=Cc1ccc(Br)cc1 | > 20 | 1.02 | – |
| CCCC(S(=O)(=O)c1ccccc1)S(=O)(=O)c1ccccc1 | – | – | inactive |
| C#Cc1cccc(N2C(=O)CC(=P(c3ccccc3)(c3ccccc3)c3ccccc3)C2=O)c1 | > 11.2 | > 11.2 | – |
| Cc1ccc(C=C(C(=O)O)C(=O)O)cc1 | > 1200 | > 1200 | – |

| SMILES | EC50 [µM] | IC50 [µM] | outcome |
| --- | --- | --- | --- |
| COCOC1CCCC[C@@]1(OCCOCCO[C@@]1(c2ccccc2)CCCC[C@H]1OCOC)c1ccccc1 (stereo not given in full) | > 5.01 | > 5.01 | – |
| O=[N+]([O-])C(=C(c1ccccc1)c1ccccc1)[N+](=O)[O-] | – | – | inactive |
| S=c1[nH]c(=S)c2cc(Sc3ccc4[nH]c(=S)[nH]c(=S)c4c3)ccc2[nH]1 | > 200 | > 200 | – |
| CSc1cc(-c2ccccn2)nc(-c2ccccn2)c1.CSc1cc(-c2ccccn2)nc(-c2ccccn2)c1.[Ni+2].[O-][Cl+3]([O-])([O-])[O-] | > 200 | > 200 | – |
| COc1ccc(C(=O)CC(c2ccc(OC)c(OC)c2)c2c(O)c3ccccc3oc2=O)cc1OC (stereo not given) | > 200 | 117 | – |
| O=C(OCc1ccccc1)N1c2cc([N+](=O)[O-])ccc2C(=O)N2CCC[C@H]2C1O (stereo not given in full) | > 200 | 138 | – |
| NC(CSS(=O)(=O)O)=NCCCOCc1ccccc1 | > 200 | 112 | – |
| CCN1C[C@]2(C)CC[C@H](O)C34C1C(C[C@@H]32)[C@@]1(O)CC[C@H]2C[C@@H]4[C@@H]1[C@H]2O | – | – | inactive |
| COC=C=CC(C)(C)OC | > 550 | > 550 | – |
| Cc1cc(N=Nc2ccccc2)ccc1NCS(=O)(=O)O | > 200 | 117 | – |
| CCOc1ccc2nc(NC(=O)C(=O)C(C#N)CC(C)(C)C=O)sc2c1 (stereo not given) | > 479 | 263 | – |
| C1CSCCCSCCSCCCSC1 | > 18.2 | > 18.2 | – |
| CCc1n[nH]c(=O)n1CCCCCCCCn1c(CC)n[nH]c1=O | > 200 | > 200 | – |
| O=C(NCCn1ccnn1)Nc1ccccc1 | > 200 | > 200 | – |
| NNC(=S)N/N=C(\c1nc2ccc(Cl)cc2[nH]c1=O)C(O)c1ccc(Cl)cc1Cl (stereo not given) | > 525 | 97.7 | – |
| C1CCC(OCC2(COC3CCCCO3)CCCCO2)OC1 (stereo not given) | > 200 | > 200 | – |
| [CH3][Ga]([CH3])[n]1cccn1 | > 562 | 74.1 | – |
| CN(C)c1cccc(/C=C(\C#N)c2ccccc2)c1 | > 200 | 0.339 | – |
| N#Cc1ccc(C2ON=C(c3ccccc3)N2C23CC4CC(CC(C4)C2)C3)cc1 (stereo not given) | > 200 | 151 | – |
| Nc1ccccc1C(=O)CCc1ccccc1C(=O)O | – | – | inactive |
